Experimental data published in patent US10314843B2, “Combinations for the treatment of neoplasms using quiescent cell targeting and inhibitors of mitosis” (Felicitex Therapeutics, Inc., priority 2016, dated 2019).

How the values were obtained:
quiescent cancer cells = conditions: in vitro; reported by Ewton et al. 2011; cited from earlier work
DMS273 cells = experiment: FACS cell cycle distribution (Acridine Orange), DMS273 cells; type: cell-based; conditions: FBS+ media, 24 hours
Description: (§1) The following cell lines were obtained from ATCC and cultured according to the ATCC recommendations: DMS273—small cell lung cancer cell line; H1975—non-small cell lung cancer cell line harboring L858R and T790M mutations in EGFR TK; A549—a non-small cell lung cancer cell line with wild type EGFR; LNCap—prostate cancer cell line; SW620—colon cancer cell line; MiaPaCa2—pancreatic cancer cell line; PANC1—pancreatic cancer cell line; OVCAR3—ovarian cancer cell line; SK-OV-3—ovarian cancer cell line.
(§2) Cell cultures were seeded into 6-well plates at 3×10^5-6×10^5 cells/well; the plated number of cells depended on cell size and rate of proliferation, aiming for approximately 50% confluency. After seeding, the cells were allowed to attach for 24 hours while incubated at 37° C. in a humidified 5% CO2 atmosphere, and then treated with compounds for desired amount of time (usually 24 hours) incubating under same conditions. Then the cells were harvested by trypsinization, pooled with the floating cells, washed in PBS, and fixed in 70% ice-cold ethanol overnight. For Acridine Orange (AO) staining, fixed cells were washed once with ice-cold PBS, re-suspended in 100 μL PBS, followed by addition of 200 μL of permeabilizing solution and 600 μL AO staining solution. The measurements were performed with Guava easyCyte HT flow cytometer (EMD Millipore) using the blue laser for excitation at 488 nm, monitoring emission of the AO-DNA complex at 526 nm and AO-RNA complex at 650 nm. The complete protocol and composition of buffers are described in the literature (Darzynkiewicz Z, Juan G, and Srour E F (2004) Differential Staining of DNA and RNA (2004). Current Protocols in Cytometry, Chapter 7:Unit 7.3).

SW620 cells [1] = experiment: FACS cell cycle distribution (Acridine Orange), SW620 cells; type: cell-based; conditions: combination of Compound I-7 (4 μM) with paclitaxel (2 nM), FBS+ media, 24 hours
Description: as §1, §2

SW620 cells [2] = experiment: FACS cell cycle distribution by DNA content (propidium iodide), SW620 cells in FBS- media; type: cell-based; conditions: 24 hours in FBS- media, AZ191 2.5, 5, 10 μM, Compound I-7 1.25, 2.5, 5 μM
Protocol: as §2, with “[…] […]” for “For Acridine Orange (AO) staining, fixed cells were washed once with ice-cold PBS, re-suspended in 100 μL PBS, followed by addition of 200 μL of permeabilizing solution and 600 μL AO staining solution. The measurements were performed with Guava easyCyte HT flow cytometer (EMD Millipore) using the blue laser for excitation at 488 nm, monitoring emission of the AO-DNA complex at 526 nm and AO-RNA complex at 650 nm.”
The SW620 cells were cultured and treated as described in Example 1. For propidium iodide (PI) staining, manufacturer's protocol supplied with the Guava Cell Cycle Reagent for Flow Cytometry (EMD Millipore) was followed. The measurements were performed with Guava PCA-96 flow cytometer (EMD Millipore) using the green laser for excitation at 535 nm and monitoring emission at 617 nm.
The SW620 cells were cultured, treated, and analyzed as described in Examples 1. […]

[3] = combination of Compound I-7 (4 μM) with vincristine (1.1 nM)
[4] = combination of Compound I-7 (4 μM) with vinorelbine (8.1 nM)
[5] = combination of Compound I-7 with paclitaxel

SMILES: COc1ncc2cc(C(=O)Nc3cc(C(=O)NCc4cccc(Cl)c4)ccc3Cl)c(=O)[nH]c2n1 [TC-S 7004]
- effectiveness against quiescent cancer cells (quiescent cancer cells): effective against quiescent cancer cells in vitro

SMILES: CCOC(=N)c1nc2ccc3ncnc(Nc4cc(F)c(F)cc4Cl)c3c2s1 [Compound I-7]
- cytotoxicity (fraction of apoptotic cells, sub-G0 population) (DMS273 cells; [3]): significantly higher than that of vincristine alone
- fraction of cells in G0 (DMS273 cells; [3]): significant reduction of the fraction of cells in G0
- cytotoxicity (fraction of apoptotic cells, sub-G0 population) (DMS273 cells; [4]): significantly higher than that of vinorelbine alone
- fraction of cells in G0 (DMS273 cells; [4]): significant reduction of the fraction of cells in G0
- cytotoxicity (fraction of apoptotic cells, sub-G0 population) (DMS273 cells; [5]): significantly higher than that of paclitaxel alone
- fraction of cells in G0 (DMS273 cells; [5]): significant reduction of the fraction of cells in G0
- cytotoxicity (fraction of apoptotic cells, sub-G0 population) (SW620 cells [1]): significantly higher than that of paclitaxel alone
- fraction of cells in G0 (SW620 cells [1]): significant reduction of the fraction of cells in G0
- fraction of cells in quiescent state (G0), based on fraction of cells in G0+G1 phase (SW620 cells [2]): significant decrease in fraction of cells in quiescent state (G0)

SMILES: COc1cc(N2CCN(C)CC2)ccc1Nc1nccc(-c2cn(C)c3cnccc23)n1 [AZ191]
- fraction of cells in quiescent state (G0), based on fraction of cells in G0+G1 phase (SW620 cells [2]): no decrease in fraction of cells in quiescent state (G0)
